Legend:
[1] = refractive index (Na D-line) (dimensionless); xn = mol fraction of the nth substance listed; conditions: 81.5 kPa, Liquid, Standard Abbe refractometry
[2] = xn = mol fraction of the nth substance listed; conditions: 81.5 kPa, Liquid, Vibrating tube method

CNC1CCCCC1 [N-methylcyclohexylamine] + CC(C)O
Conditions	mass density, 298.15 K [kg/m3]	mass density, 308.15 K [kg/m3]	mass density, 318.15 K [kg/m3]	mass density, 328.15 K [kg/m3]	refractive index, 298.15 K	refractive index, 308.15 K	refractive index, 318.15 K	refractive index, 328.15 K
[1], x2 = 0	–	–	–	–	1.45306	1.44812	1.4431	1.43809
[1], x2 = 0.159	–	–	–	–	1.4471	1.44293	1.43862	1.43418
[1], x2 = 0.2745	–	–	–	–	1.44224	1.43814	1.43386	1.42939
[1], x2 = 0.3856	–	–	–	–	1.43655	1.43263	1.42854	1.4242
[1], x2 = 0.4867	–	–	–	–	1.43021	1.42642	1.42248	1.41824
[1], x2 = 0.5738	–	–	–	–	1.42372	1.41996	1.41606	1.41185
[1], x2 = 0.6539	–	–	–	–	1.41688	1.41311	1.4092	1.40495
[1], x2 = 0.7253	–	–	–	–	1.41003	1.40629	1.40239	1.39812
[1], x2 = 0.7904	–	–	–	–	1.40314	1.39948	1.39565	1.39141
[1], x2 = 0.85	–	–	–	–	1.39619	1.39265	1.38892	1.38471
[1], x2 = 0.904	–	–	–	–	1.38928	1.38579	1.38209	1.37787
[1], x2 = 0.9541	–	–	–	–	1.38224	1.37859	1.37474	1.37035
[2], x2 = 0	865.2	856.57	847.67	838.68	–	–	–	–
[2], x2 = 0.159	860.12	851.49	842.65	833.57	–	–	–	–
[2], x2 = 0.2745	855.75	847.1	838.18	828.82	–	–	–	–
[2], x2 = 0.3856	850.26	841.55	832.63	823.19	–	–	–	–
[2], x2 = 0.4867	843.79	835.1	826.14	816.62	–	–	–	–
[2], x2 = 0.5738	836.95	828.24	819.27	809.59	–	–	–	–
[2], x2 = 0.6539	829.55	820.8	811.84	802	–	–	–	–
[2], x2 = 0.7253	822.01	813.27	804.23	794.36	–	–	–	–
[2], x2 = 0.7904	814.28	805.54	796.65	786.58	–	–	–	–
[2], x2 = 0.85	806.34	797.64	788.79	778.81	–	–	–	–
[2], x2 = 0.904	798.29	789.69	780.82	770.72	–	–	–	–
[2], x2 = 0.9541	789.83	781.27	772.4	762.26	–	–	–	–
